Results on 14 molecules are retold here after PubChem BioAssay (NCI).

Each structure is given as a SMILES string. Where “and” joins values, the source holds several entries; their conditions need not be identical. Identical values can stand only once.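 In this assay, cells in 96-well plates receive the compound at five concentrations for 48 hours. Endpoints are linearly interpolated between the surrounding concentrations. GI50 is the concentration that inhibits growth by half. TGI is the concentration that stops growth completely.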

Some test systems named below: CCRF-CEM leukemia; COLO 205 colon; HT29 colon; K-562 leukemia; M14 melanoma; MOLT-4 leukemia; OVCAR-3 ovarian; OVCAR-4 ovarian; SK-MEL-5 melanoma; SK-OV-3 ovarian.
Assay in all cases: growth of human tumour cells (NCI), 48 h

`[N-]=[N+]=C1N=CN=C1c1ncn[nH]1`: the TGI with CCRF-CEM leukemia is 27.6 µM; in the experiment on COLO 205 colon, greater than 100 µM; with HT29 colon, greater than 100 µM; with K-562 leukemia, 60 µM; in the experiment on M14 melanoma, greater than 100 µM; in the experiment on MOLT-4 leukemia, 37.1 µM. For the same molecule, the TGI in the experiment on OVCAR-3 ovarian, with OVCAR-4 ovarian, in the experiment with SK-MEL-5 melanoma and in the experiment with SK-OV-3 ovarian was greater than 100 µM each time.

`C[Si](C)(OCCS(=O)(=O)O)C1(Cc2cccc3ccccc23)S(=O)(=O)OCCOS1(=O)=O`: the TGI was 45.9 µM with CCRF-CEM leukemia; 25.3 µM with COLO 205 colon; greater than 100 µM with K-562 leukemia; 46.1 µM with M14 melanoma; greater than 100 µM with MOLT-4 leukemia; 25.9 µM in the experiment with OVCAR-3 ovarian. The figures for the TGI with OVCAR-4 ovarian, in the experiment on SK-MEL-5 melanoma and in the experiment on SK-OV-3 ovarian were 52.3 µM, 31.1 µM and 35.6 µM, respectively.

`CCOP(=O)(OCC)/C(C#N)=C/c1cn(C)cn1`: the TGI with CCRF-CEM leukemia, in the experiment on COLO 205 colon, in the experiment on HT29 colon, with K-562 leukemia, in the experiment with M14 melanoma and with OVCAR-3 ovarian was greater than 100 µM throughout. Also, the TGI in the experiment on OVCAR-4 ovarian and in the experiment with SK-OV-3 ovarian was greater than 100 µM throughout.

For the molecule `N[C@H](C(=O)O)[C@H]1ON=C(Cl)[C@@H]1O`, the GI50 with CCRF-CEM leukemia was 5.15 µM; with COLO 205 colon, 3.27 µM; with HT29 colon it was 1.24 µM; in the experiment on K-562 leukemia, 4.15 µM; with MOLT-4 leukemia, 2.48 µM; in the experiment with OVCAR-3 ovarian it was 0.449 µM. Further, the GI50 in the experiment on OVCAR-4 ovarian was 5.32 µM; in the experiment on SK-MEL-5 melanoma, 4.39 µM; in the experiment on SK-OV-3 ovarian, 4.86 µM. In addition, the TGI was greater than 246 µM in the experiment on CCRF-CEM leukemia; greater than 550 µM in the experiment on COLO 205 colon; greater than 296 µM in the experiment with HT29 colon; greater than 550 µM in the experiment with K-562 leukemia; greater than 66.9 µM in the experiment on M14 melanoma; 68 µM in the experiment on MOLT-4 leukemia. The TGI is greater than 550 µM with OVCAR-3 ovarian; 42.2 µM with OVCAR-4 ovarian; > 96.2 µM and 246 µM in the experiment with SK-MEL-5 melanoma; greater than 231 µM in the experiment on SK-OV-3 ovarian.

Regarding `C[C@]12CCC(=O)C=C1CC[C@@H]1[C@@H]2[C@@H](O)C[C@@]2(C)[C@H]1CC[C@]2(O)C(=O)COC(=O)COCC(=O)O`, the TGI in the experiment with CCRF-CEM leukemia, with COLO 205 colon, with HT29 colon, with K-562 leukemia, in the experiment with M14 melanoma and with MOLT-4 leukemia was greater than 100 µM throughout. In addition, the TGI with OVCAR-3 ovarian, in the experiment on OVCAR-4 ovarian, with SK-MEL-5 melanoma and in the experiment on SK-OV-3 ovarian was greater than 100 µM in each case.

On to `O=S(=O)(CCBr)CCBr`, for which the TGI was greater than 30.2 µM in the experiment with CCRF-CEM leukemia; 12.7 µM with COLO 205 colon; 20.3 µM in the experiment with HT29 colon; greater than 48.8 µM with K-562 leukemia; 7.75 µM in the experiment on MOLT-4 leukemia; 12.3 µM in the experiment with OVCAR-3 ovarian. For the same molecule, the TGI in the experiment on OVCAR-4 ovarian was found to be 22.5 µM; in the experiment with SK-MEL-5 melanoma, 19.8 µM; with SK-OV-3 ovarian, 43.6 µM.

With `O=C(Nc1cccc(-n2ccc3c(NC(=O)c4ccccc4)nccc32)c1)Nc1cc(C(F)(F)F)cc(C(F)(F)F)c1`, the GI50 with CCRF-CEM leukemia is 1.76 µM; in the experiment with COLO 205 colon, 1.68 µM; with HT29 colon it was 1.37 µM; with K-562 leukemia it was 1.68 µM; in the experiment on M14 melanoma, 1.11 µM; in the experiment on MOLT-4 leukemia, 1.92 µM. For the same molecule, the GI50 was 1.28 µM in the experiment with OVCAR-3 ovarian, 1.93 µM in the experiment with OVCAR-4 ovarian and 0.946 µM in the experiment with SK-MEL-5 melanoma. In addition, the TGI was greater than 50 µM in the experiment on CCRF-CEM leukemia; 5.29 µM in the experiment on COLO 205 colon; 4.31 µM with HT29 colon; greater than 50 µM in the experiment on K-562 leukemia; 2.56 µM in the experiment with M14 melanoma; 36 µM with MOLT-4 leukemia. For the same molecule, the values for the TGI in the experiment with OVCAR-3 ovarian, in the experiment on OVCAR-4 ovarian and in the experiment on SK-MEL-5 melanoma were 3.18 µM, greater than 50 µM and 1.95 µM, respectively.

Take `COc1ccc(-n2cnnc2-c2nsc3ccccc23)cc1`: the TGI in the experiment on CCRF-CEM leukemia, with COLO 205 colon, in the experiment on HT29 colon, in the experiment on K-562 leukemia, in the experiment on M14 melanoma and in the experiment with MOLT-4 leukemia was greater than 100 µM each time. Further, the TGI with OVCAR-3 ovarian, in the experiment on OVCAR-4 ovarian and with SK-MEL-5 melanoma was greater than 100 µM each time.

Take `O=C(O)c1cc2ccccc2c(N=Nc2ccc(S(=O)(=O)Nc3nccs3)cc2)c1O`: the TGI in the experiment on CCRF-CEM leukemia, with COLO 205 colon, with HT29 colon, in the experiment on K-562 leukemia, in the experiment on M14 melanoma and in the experiment on MOLT-4 leukemia was greater than 100 µM throughout. The TGI in the experiment on OVCAR-3 ovarian, with OVCAR-4 ovarian, with SK-MEL-5 melanoma and with SK-OV-3 ovarian was greater than 100 µM in each case.

In the case of `Nc1nc(SCc2ccc([N+](=O)[O-])cc2)nc2c1ncn2C1OC(COP(=O)(O)O)C(O)C1O` (stereo unspecified), the TGI in the experiment on CCRF-CEM leukemia, in the experiment on COLO 205 colon, in the experiment on HT29 colon, in the experiment on K-562 leukemia, in the experiment with M14 melanoma and in the experiment on MOLT-4 leukemia was greater than 100 µM throughout. Also, the TGI in the experiment with OVCAR-3 ovarian, with OVCAR-4 ovarian, in the experiment with SK-MEL-5 melanoma and with SK-OV-3 ovarian was greater than 100 µM throughout.

In the case of `Cc1ccc(N=N/C(=N\NC(=O)c2ccc(C)cc2)c2ccc(N(CCC#N)CCC#N)cc2C)cc1`, the TGI in the experiment with CCRF-CEM leukemia was greater than 100 µM; in the experiment with COLO 205 colon it was greater than 100 µM; in the experiment on HT29 colon it was greater than 100 µM; in the experiment with K-562 leukemia it was greater than 100 µM; in the experiment with M14 melanoma, 91.8 µM; in the experiment on MOLT-4 leukemia, greater than 100 µM. Moreover, the TGI in the experiment with OVCAR-3 ovarian, in the experiment with OVCAR-4 ovarian, with SK-MEL-5 melanoma and in the experiment with SK-OV-3 ovarian was greater than 100 µM each time.

As to `CC(C)OP(=O)(OC(C)C)/C(I)=N/Nc1ccc([N+](=O)[O-])cc1`, the TGI in the experiment on CCRF-CEM leukemia, with COLO 205 colon, in the experiment with HT29 colon, with K-562 leukemia, in the experiment on M14 melanoma and with MOLT-4 leukemia was greater than 100 µM each time. Also, the TGI in the experiment on OVCAR-3 ovarian, in the experiment on OVCAR-4 ovarian, with SK-MEL-5 melanoma and in the experiment with SK-OV-3 ovarian was greater than 100 µM each time.

As for `CC(NC(=O)C(C)NC(=O)C(N)CCP(C)(=O)O)C(=O)O` (stereo unspecified), the TGI in the experiment on CCRF-CEM leukemia, with COLO 205 colon, in the experiment on HT29 colon, in the experiment with K-562 leukemia, in the experiment with MOLT-4 leukemia and with OVCAR-3 ovarian was greater than 100 µM each time. For the same molecule, the TGI in the experiment on OVCAR-4 ovarian, in the experiment with SK-MEL-5 melanoma and in the experiment on SK-OV-3 ovarian was greater than 100 µM in each case.

In the case of `CC1=Nc2nc(Cl)cn2C(=O)C1(Cl)Cl`, the TGI in the experiment with CCRF-CEM leukemia, in the experiment with COLO 205 colon, in the experiment on HT29 colon, in the experiment with K-562 leukemia, in the experiment on M14 melanoma and with MOLT-4 leukemia was greater than 10 µM each time. Further, the TGI with OVCAR-3 ovarian, with OVCAR-4 ovarian, with SK-MEL-5 melanoma and in the experiment on SK-OV-3 ovarian was greater than 10 µM in each case.
